Data reported in patent publication US5902789A, “Nasal administration of drugs” (Fisons Corporation, priority 1995, dated 1999).

What was measured:
[1] = cited from earlier work
[2] = Example II irritation studies of nasal spray solutions without insulin (10 days); assay type: in vivo, human; settings: longer than 5 days, polysorbate-80 added to nasal spray solution
Experimental: Chronic irritation studies, i.e., longer than 5 days, using polysorbate-80 according to the present invention have also been carried out.
Studies were carried out to determine the effect on nasal irritation of the addition of varying amounts of polysorbate-80 to nasal spray solutions containing N-9. […] In each study ten normal subjects were treated with one squirt (about 0.15 ml) of the nasal spray solution three times a day for ten consecutive days. After administration, the subjects were questioned about any symptoms and findings recorded. The nasal passages were examined on the fifth and tenth days of treatment by an ENT ([…], nose and throat) specialist and findings recorded.
The nasal spray solutions used in the study comprised 1% of a mixture of polysorbate-80:N-9, 1:9, wt:wt; 0.5% of a mixture of polysorbate-80:N-9, 1:9, wt:wt; 0.25% of a mixture of polysorbate-80:N-9, 1:9, wt:wt; 1% of a mixture of polysorbate-80:N-9, 1:3, wt:wt; 0.5% of a mixture of polysorbate-80:N-9, 1:3, wt:wt; 0.25% of a mixture of polysorbate-80:N-9, 1:3, wt:wt; 0.1% N-9 or a saline placebo. All of the nasal spray solutions produced minor changes in nasal mucosa and minor symptomatic complaints but the number encountered with 0.5% P-80:N-9, 1:9, and 0.5% P-80:N-9:1:3 (4 out of 10 subjects in each group) most closely paralleled the saline placebo (7 out of 20 subjects).

Substance	promotion of insulin absorption ([1]; 0.1% laureth-9, nasally)	absorption of nasally administered insulin ([1]; humans)	tolerability of nasal administration ([1]; laureth-9 at 0.1% by weight, nasally)	nasal irritation accompanying administration ([1]; nasally administered insulin in humans, effects proportional to laureth-9 concentration)	chronic irritation [2]
laureth-9	only moderately effective	enhanced absorption	tolerated by all subjects tested	often accompanied by nasal irritation such as stinging, congestion and rhinorrhea	
polysorbate-80					reduces chronic irritation
